Legend:
[1] = tested on: Renca-lacZ/EGFR renal carcinoma cells; test: MTT cell viability assay; assay type: cell-based, Mouse; settings: 40 h
Source text: (§1) Renal cell carcinoma (Renca) cells stably transfected with plasmid pZeoSV2/lacZ encoding E. coli β-galactosidase, and either with plasmids pSV2ErbB2N and pSV2neo encoding c-erbB2 and neomycin resistance (Renca-lacZ/ErbB2) (Maurer-Gebhard et al., Cancer Res. 58: 2661-2666, 1998), or plasmids pLTR-EGFR or pLTR-EGFRvIII and pSV2neo encoding epidermal growth factor (EGF) receptor, the oncogenically activated EGF receptor variant EGFRvIII, and neomycin resistance (Renca-lacZ/EGFR and Renca-lacZ/EGFRvIII) (Schmidt et al., Oncogene 18: 1711-1721, 1999) were grown in RPMI-1640 medium supplemented with 8% FBS, 2 mM L-glutamine, 100 U/ml penicillin, 100 μg/ml streptomycin, 0.25 mg/ml Zeocin and 0.48 mg/ml G418.
(§2) Tumor cells were seeded in 96 well plates at a density of 1×10^4 cells/well in normal growth medium. SKBR3, A431 and SKOV3 cells were treated for 40 h with valproic acid at a final concentration of 3 mM, or 10 ng/ml of the recombinant anti-ErbB2 single chain antibody-toxin scFv(FRP5)-ETA (Wels et al., Cancer Res. 52: 6310-6317, 1992), or 10 ng/ml of the recombinant anti-EGF receptor single chain antibody-toxin scFv(14E1)-ETA (Schmidt et al., Brit. J. Cancer 75: 1575-1584, 1997), or a combination of valproic acid with either scFv(FRP5)-ETA or scFv(14E1)-ETA at the same concentrations. Renca-lacZ/ErbB2, Renca-lacZ/EGFR and Renca-lacZ/EGFRvIII cells were treated for 40 h with valproic acid at a final concentration of 1 mM, or 10 ng/ml of the recombinant anti-ErbB2 single chain antibody-toxin scFv(FRP5)-ETA, or 1 ng/ml of the recombinant anti-EGF receptor single chain antibody-toxin scFv(14E1)-ETA, or a combination of valproic acid with either scFv(FRP5)-ETA or scFv(14E1)-ETA at the same concentrations. Control cells were grown in the absence of valproic acid or antibody-toxins. Ten μl of 10 mg/ml 3-(4,5-dimethylthiazole-2-yl)-2,5 diphenyltetrazolium bromide (MTT) (Sigma, Deisenhofen, Germany) in PBS were added to each well and the cells were incubated for another 3 h. Cells were lysed by the addition of 90 μl of lysis buffer (20% SDS in 50% dimethyl formamide, pH 4.7). After solubilization of the formazan product, the absorption at 590 nm was determined in a microplate reader (Dynatech, Denkendorf, Germany) and the relative amount of viable cells in comparison to cells cultured without the addition of valproic acid or antibody-toxins was calculated.

[2] = tested on: Renca-lacZ/ErbB2 renal carcinoma cells; test: MTT cell viability assay; assay type: cell-based, Mouse; settings: 40 h
Source text: as §1, §2

[3] = tested on: Renca-lacZ/EGFRvIII renal carcinoma cells; test: MTT cell viability assay; assay type: cell-based, Mouse; settings: 40 h
Source text: as §1, §2

human endothelial cells = test: endothelial cell activation (anti-angiogenesis); assay type: cell-based; settings: VPA and inhibitors of VEGF-R tyrosine kinase activity at the same time, vs individual drugs alone
Experimental: In addition, the effect of inhibitors of vascular endothelial growth factor receptor (VEGF-R) tyrosine kinase activity was tested on these cells since VEGF-R inhibitors are known to act anti-angiogenic in model systems of tumor-associated endothelial cell activation (e.g. vascular tube formation and/or endothelial cell activation).

[4] = tested on: PML-RAR expressing murine hematopoietic progenitors (lin-); test: myeloid differentiation (Mac-1, FACS) of transduced hematopoietic progenitors; assay type: cell-based; settings: VPA 1 mM with cytokines (IL3, IL6, SCF, G-CSF, GM-CSF), 8-10 days
Experimental: Murine hematopoietic progenitors (lin-) were transduced with a retroviral vector encoding PML-RAR, and GFP as a marker. […] Myeloid differentiation was scored by analyzing the presence of the differentiation marker Mac-1.
Lin- cells were grown for 48 hours in the presence of IL-3 (20 ng/ml), IL-6 (20 ng/ml), SCF (100 ng/ml), and then attached to non-tissue culture treated plates coated with Retronectin (Takara-Shuzo). Cells were then transduced by incubation with the supernatant from Phoenix ecotropic packaging cells (supplemented with fresh serum, and IL-3, IL-6, and SCF as above), transiently transfected with the control retroviral vector PINCO, or PINCO-PML-RAR. After 60 hours, GFP+cells were sorted by FACS, and seeded in methylcellulose plates supplemented as above, plus G-CSF (60 ng/ml) and GM-CSF (20 ng/ml). […] After 8-10 days, cells were analyzed for the presence of the myeloid differentiation marker Mac-1 by FACS.
Differentiation was assessed after 8-10 days by analysis of the myeloid differentiation marker Mac-1.

[5] = tested on: DU-145 prostate cancer cells; test: SRB-assay, reduction in total cellular biomass; assay type: cell-based, human
Experimental: (§3) The reduction in cellular biomass was measured by SRB-assay. For this assay cells were seeded in 96 well culture dishes at densities between 3000 and 8000 cells per well. […] Cultures were fixed with cold TCA producing a final TCA concentration of 10%. After 1 hour of incubation at 4° C. the cells were washed five times with water and air dried. Fixed cells were stained for 30 minutes with 0,4% (wt/vol) Sulforhodamine B (SRB) dissolved in 1% acetic acid and washed four times with 1% acetic acid to remove unbound dye. After air drying bound dye was solubilized with 10 mM unbuffered Tris base (pH 10,5) for 5 minutes. Optical densities were read on a Titertek Multiskan Plus spectrophotometric plate reader at 550 nm. Six test wells for each dose-response were set in parallel with 12 growth control wells per cell line. A measure of the cell population density at time 0 (To; the time at which the drug was added) was also made from 12 extra reference wells of cells fixed with TCA just prior to drug addition to the test plates. Background OD of complete medium with 5% FBS fixed and stained as described above was also determined in 12 separate wells. From the unprocessed OD data from each microtiter plate the background OD measurements (i.e. OD of complete medium plus stain and OD of cells at T0) were subtracted thus giving the reduction of cellular biomass of the cells.
(§4) The effect on the reduction in total cellular biomass was measured by SRB-assay (see example 1 for assay and read-out procedure details).
(§5) Results using MCF-7 estrogen-dependent breast cancer cells are presented in FIG. 18 and using DU-145 prostate cancer cells in FIG. 19. […] The effect on cell growth was measured by SRB-assay as described in example 1.

[6] = tested on: MCF-7 estrogen-dependent breast cancer cells; test: SRB-assay, reduction in total cellular biomass; assay type: cell-based, human
Experimental: as §3, §4, §5

[7] = 1 mM valproic acid + 1 ng/ml scFv(14E1)-ETA
[8] = single reagent, valproic acid 1 mM, scFv(14E1)-ETA 1 ng/ml
[9] = VPA in combination with 100 nM 1α,25 Dihydroxyvitamin D3, 48 hours, vs either alone

Compound: CCCC(CCC)C(=O)O [VPA, 2-propylpentanoic acid]
- cell viability, combination treatment [1, 7]: pronounced additive therapeutic effect
- cell viability [1, 8]: inhibit the viability
- cell viability, combination treatment ([2]; 1 mM valproic acid + 10 ng/ml scFv(FRP5)-ETA): pronounced additive therapeutic effect
- cell viability ([2]; single reagent, valproic acid 1 mM, scFv(FRP5)-ETA 10 ng/ml): inhibit the viability
- cell viability, combination treatment [3, 7]: pronounced additive therapeutic effect
- cell viability [3, 8]: inhibit the viability
- activation of endothelial cells (human endothelial cells): at least additive effect
- differentiation block imposed by PML-RAR (Mac-1) [4]: almost completely reverted the differentiation block
- reduction of cellular biomass ([5]; 1 mM VPA in combination with lower concentrations of cis Platinum, 48 hours): synergistic reduction of cellular biomass
- reduction in cellular biomass [5, 9]: at least additive reduction in cellular biomass
- reduction in cellular biomass ([6]; 0.75 mM VPA in combination with Paclitaxel, 48 hours, compared to either alone): clear additive reduction in cellular biomass
- effect of the combination treatment ([6]; VPA in combination with 100 nM 1α,25 Dihydroxyvitamin D3, 48 hours): slight synergistic effect
- reduction in cellular biomass [6, 9]: at least additive reduction in cellular biomass

Source: patent US20050038113A1, “Valproic acid and derivatives for the combinatorial therapeutic treatment of human cancers and for the treatment of tumor metastasis and minimal residual disease” (G2M Cancer Drugs AG, priority 2001, published 2005)
